In data set [1] the test system is β-lactamase producing microorganisms. Particulars: Hakimelahi et al. 2005; cited from earlier work.
Data set [2] has as its system wild type E. coli Bl21. Kind of data set: Nitrocefin colorimetric assay in living bacteria. In kind it is cell-based. The conditions noted are these: nitrocefin 8 μM. Here is the method: (§1) FIG. 22 depicts a colorimetric measurement after mixing nitrocefin with different bacterial suspensions. 1: Nitrocefin solution (8 μM) only; 2: Nitrocefin (8 μM) mixed with wild type E. coli Bl21; 3: Nitrocefin (8 μM) mixed with β-lactam antibiotics resistant E. coli Bl21; 4: Nitrocefin (8 μM) mixed with clinical isolate K. pneumoniae (ATCC 700603) strains. […] There was no color difference between the Bla-encoded E. coli Bl21 and the K. pneumoniae strains.
(§2) Bacterial cells (˜10^8 cfu/mL) were suspended in 1 ml of PBS buffer (pH 7.4) which contained substrates under the room temperature. Nitrocefin solution (from Merck) was incubated with bacteria for further enzyme interactions. The final concentration was maintained at 8 μM, which was the same as the gold nanoparticles based enzymatic assay. After 20 mins interaction and followed by centrifugation, supernatant was applied for colorimetric image. The color change with different bacterial suspensions is depicted in FIG. 22.

Data set [3] has as its system clinical isolate K. pneumoniae (ATCC 700603). Kind of data set: Nitrocefin colorimetric assay in living bacteria. Particulars: nitrocefin 8 μM. It is filed as cell-based. The protocol:
as §1, §2

Data set [4] concerns β-lactam antibiotics resistant E. coli Bl21. Kind of data set: Nitrocefin colorimetric assay in living bacteria. It is filed as cell-based. The conditions noted are these: nitrocefin 8 μM. Here is the method: as §1, §2
Data set [5] deals with CC(=O)NC1C(=O)N2C(C(=O)O)=C(CSc3ccc(CC(=O)NCCOCCOCCN)cc3)CSC12. The data set is described as follows: purified protein, by the assay type. Particulars: other: 25° C., PBS pH 7.4, β-lactamase 5.0 nM, absorbance change at 650 nm.
Method: The kinetic measurements were carried out at 25° C. in PBS (phosphate buffered saline) buffer at pH 7.4. The absorbance change at 650 nm was measured by means of a UV spectrophotometer.
The rate of enhancement in absorbance at 650 nm was applied to determine the kinetic properties of enzyme hydrolysis. The values of the kinetic parameters (Km and Kcat) were determined from the double-reciprocal plot of the hydrolysis rate versus substrate concentrations (Lineweaver-Burk plot, based on the Michaelis-Menten model).
The kinetic experiments were carried out at 25° C. in PBS buffer with pH 7.4. The absorbance change at 650 nm was measured using a UV spectrophotometer. […] The rate of enhancement in absorbance at 650 nm was applied to determine the kinetic properties of enzyme hydrolysis. The 9 values of the kinetic parameters (Km and Kcat) were determined from the double-reciprocal plot of the hydrolysis rate versus substrate concentrations (Lineweaver-Burk plot).

Take `COC(=O)C1=C(C(=O)OC(Cl)(Cl)C(Cl)(Cl)OC(=O)C2=C(c3ccccc3)C[C@@H]3[C@@H](NC(=O)Cc4ccccc4)C(=O)N23)N2C(=O)[C@@H](NC(=O)Cc3ccccc3)[C@H]2C1` (relative stereo) [(5R,6S)-rel-7-oxo-6-[(phenylacetyl)amino]-1-azabicyclo[3.2.0]hept-2-ene-2,3-dicarboxylic acid 3-methyl 2-[1,1,2,2-tetrachloro-2-[[[(5R,6R)-7-oxo-3-phenyl-6-[(phenylacetyl)amino]-1-azabicyclo[3.2.0]hept-2-en-2-yl]carbonyl]oxy]ethyl]ester]: the “activity against β-lactamase producing microorganisms” value in data set [1] is “excellent activity”.
Take `O=C(Cc1cccs1)N[C@@H]1C(=O)N2C(C(=O)O)=C(/C=C/c3ccc([N+](=O)[O-])cc3[N+](=O)[O-])CS[C@H]12` [nitrocefin]: the “color of nitrocefin solution” value in data set [2] is “pink color was also detected”. The “color change of nitrocefin solution” value in data set [3] and in data set [4] was “color change from yellow to pink” throughout.
A word on the Km: it is the concentration of substrate that gives half-maximal velocity. In general, kcat refers to the maximal rate divided by the concentration of active sites. β-lactamase (Escherichia coli): in data set [5], the Km turned out to be 14.1 µM and the kcat was found to be 22.7 s⁻¹.

The values are drawn from patent US9476087B2, “Methods and compounds for detecting beta-lactamase activity” (Nanyang Technological University, priority 2008, dated 2016).
